Reference: PubChem BioAssay AID1549 (Sanford-Burnham Center for Chemical Genomics, 2009)
Activity calls are given as the source filed them. How the calls were made is not given here.

The molecules below were run against Influenza A virus M2 proton channel (A/TW/4845/1999 H1N1) (assay: M2 proton channel binding, NMR based, influenza A virus H1N1 strain (AID 1549)). Details: NMR binding screen, M2 protein.

Structure (SMILES) | Kd
Cc1c(-c2ccccc2)[n+](=O)c(-c2ccco2)c(C)n1[O-] | > 4 mM (inactive)
CC(=O)O[C@@H]1c2c(ccc3ccc(=O)oc23)OC(C)(C)[C@@H]1OC(=O)CC(C)C | > 4 mM (inactive)
O=[n+]1cc(-c2ccccc2)n([O-])c2c1CCC2 | > 4 mM (inactive)
CCCCCC1C(=O)CCC1CC(=O)OC (centres undefined) | > 4 mM (inactive)
Cc1csc(NC(=O)c2ccoc2C)n1 | > 4 mM (inactive)
COc1ccc2c(c1)OC[C@@H](Cc1ccc(OC)c(OC)c1)[C@H]2O | > 4 mM (inactive)
COc1ccc2c(c1)[n+](=O)c(C(C)=O)c(C)n2[O-] | > 4 mM (inactive)
COc1nc(N2CCOCC2)nc(N)c1[N+](=O)[O-] | > 4 mM (inactive)
CC1=C(C(N)=O)C(c2ccccc2)NC(=O)N1 (centres undefined) | > 4 mM (inactive)
Cc1cc(=O)[nH]c(N2CCCCC2)n1 | > 4 mM (inactive)
COc1cccc(/C=C/C(=O)O)c1C(C)C | > 4 mM (inactive)
COc1ccc2c(c1OC)C(=O)O[C@H]2[C@H]1c2cc3c(cc2CCN1C)OCO3 | > 4 mM (inactive)
Cc1occc1C(=O)NCc1ccccc1F | > 4 mM (inactive)
NC(=O)C1CCN(C(=O)c2ccco2)CC1 | > 4 mM (inactive)
CCn1cnc2cc([N+](=O)[O-])ccc2c1=O | > 4 mM (inactive)
C=C(C)[C@H]1Cc2c(ccc3c2O[C@@H]2COc4cc(OC)c(OC)cc4[C@@H]2C3=O)O1 | > 4 mM (inactive)
COc1cc(N)ccc1NC(=O)c1cccs1 | > 4 mM (inactive)
COc1cc2cc[n+]3cc4c(OC)c(OC)ccc4cc3c2cc1OC | > 4 mM (inactive)
CC(C)c1ccc2c(c1O)CC[C@H]1C3=C(CC[C@]21C)C(=O)OC3 | > 4 mM (inactive)
CC(=O)c1c(C)nc(-c2cccs2)n1O | > 4 mM (inactive)
CCSc1nc(C)c(CC)c(C)c1C(N)=O | > 4 mM (inactive)
O=C1NC(=O)C(=Cc2ccccc2)C(=O)N1 | > 4 mM (inactive)
Cc1nnc(SCC(N)=O)c2ccccc12 | > 4 mM (inactive)

Structure (SMILES) | Kd
Cc1ccccc1NC(=O)C1CCC(=O)N1 (centres undefined) | > 4 mM (inactive)
O=C(O)c1ccc(CN2CCCCC2)o1 | > 4 mM (inactive)
CCOC(=O)c1c(C)n([O-])c2ccccc2[n+]1=O | > 4 mM (inactive)
c1ccc2c(c1)nnn2C1CCNCC1 | > 4 mM (inactive)
NC(=O)COc1cccc2cccnc12 | > 4 mM (inactive)
COc1cc(OC)c2c(OC)c(-c3ccc4c(c3)OCO4)c(=O)oc2c1 | > 4 mM (inactive)
Cc1sc2nc(SC3CCOC3=O)[nH]c(=O)c2c1C (centres undefined) | > 4 mM (inactive)
Cc1ccc2nc(NC(=O)CN3CCOCC3)sc2c1 | > 4 mM (inactive)
NCCCCN | > 4 mM (inactive)
CC(=O)O[C@H]1C[C@@H](OC(C)=O)C(C)(C)C2C[C@@H](O)[C@]3(C)C(CC[C@@]4(C)[C@H](c5ccoc5)OC(=O)[C@H]5O[C@]543)[C@]21C (some centres undefined) | > 4 mM (inactive)
COc1ccc(C2CC(=O)c3ccc(OC)cc3O2)cc1 (centres undefined) | > 4 mM (inactive)
COc1ccc(/C=C2/C(=O)N=C(N)N2C)cc1OC | > 4 mM (inactive)
NCc1ccccc1N1CCOCC1 | > 4 mM (inactive)
NCCc1cnc[nH]1 | > 4 mM (inactive)
CN1C(=O)CC(=O)N(C)c2ccccc21 | > 4 mM (inactive)
Nc1nc2c3ccccc3nc(Cc3ccccc3)n2n1 | > 4 mM (inactive)
CC1=C(CCC(=O)O)c2cc3nc(cc4[nH]c(cc5[nH]c(cc1n2)c(C)c5C(C)O)c(C)c4C(C)O)C(C)=C3CCC(=O)O (centres undefined) | > 4 mM (inactive)
O=c1cc(-c2ccc(O)cc2)oc2cc(O[C@@H]3O[C@H](CO)[C@@H](O)[C@H](O)[C@H]3O[C@@H]3OC[C@](O)(CO)[C@H]3O)cc(O)c12 | > 4 mM (inactive)
CN1CCC(NC(=S)NC2CC2)CC1 | > 4 mM (inactive)
C[n+]1cc2c3c(ccc2c2ccc4cc5c(cc4c21)OCO5)OCO3 | > 4 mM (inactive)
Cn1nc(-c2ccccc2)cc1N | > 4 mM (inactive)
COc1cc(OC)c2c(c1)O[C@H](c1ccc(OC)c(OC)c1)[C@@H](O)C2 | > 4 mM (inactive)
Nc1cccc(-n2cnnn2)c1 | > 4 mM (inactive)

Structure (SMILES) | Kd
O=C(Nc1ccc(N2CCCC2=O)cc1)c1cccc(F)c1 | > 4 mM (inactive)
O=C1NC(=O)C(C(C[N+](=O)[O-])c2ccc(O)cc2)C(=O)N1 (centres undefined) | > 4 mM (inactive)
O=C(Nc1nncs1)c1c(F)cccc1F | > 4 mM (inactive)
Cc1noc(C)c1C(=O)Nc1ccccn1 | > 4 mM (inactive)
C=C[C@@H](C1=CC(=O)C(OC)=C(OC)C1=O)c1ccccc1 | > 4 mM (inactive)
OCc1ccc(N2CCOCC2)nc1 | > 4 mM (inactive)
CN(C)C(=O)c1ccccc1-c1ccccc1 | > 4 mM (inactive)
O=C(O)c1cnn2ccccc12 | > 4 mM (inactive)
O=C(OCc1c(Cl)cccc1Cl)c1cnccn1 | > 4 mM (inactive)
CN(C)CCNC(CC(=O)Nc1ccccc1)C(=O)O (centres undefined) | > 4 mM (inactive)
O=[n+]1cc(C2=CC=CCC2)n([O-])c2c1CCCCC2 | > 4 mM (inactive)
Cc1cc(C(=O)NN2CCOCC2)c(C)o1 | > 4 mM (inactive)
COC(=O)C[C@H]1C2(C)CC34OC5(C)O[C@@]6([C@H](OC)C(OC(=O)C(C)C)[C@]7(C)C(/C(=C(/OC)C(C)C)C(=O)O[C@H]7c7ccoc7)[C@@]6(O5)[C@H](OC)[C@@]3(OC)C2OC(C)=O)[C@]14C (some centres undefined) | > 4 mM (inactive)
Nc1c(F)c(F)nc(F)c1F | > 4 mM (inactive)
Cc1cc(N)ccc1NC(=O)c1ccco1 | > 4 mM (inactive)
Nc1ccc(N2CCOCC2)cc1 | > 4 mM (inactive)
Nc1ccc2c(c1)OCCO2 | > 4 mM (inactive)
Cc1cc(NC(=O)Cc2cccs2)no1 | > 4 mM (inactive)
CN=C1SC(CC(=O)Nc2ccc(O)cc2)C(=O)N1C (centres undefined) | > 4 mM (inactive)
Cn1c(CN2CC(c3ccccc3)CC2=O)n[nH]c1=S (centres undefined) | > 4 mM (inactive)
CCOc1ccc(C(=O)c2ccc(O)c(O)c2O)cc1 | > 4 mM (inactive)
CC(C)CC(=O)Nc1c[nH]c(=O)[nH]c1=O | > 4 mM (inactive)
CC1(C)Cc2nc3[nH]c(=S)[nH]c(=O)c3cc2CO1 | > 4 mM (inactive)

Structure (SMILES) | Kd
O=C(Nc1ccncc1)Nc1ccc(F)cc1F | > 4 mM (inactive)
Cc1ccccc1NC(=O)CSc1ccnc(=O)[nH]1 | > 4 mM (inactive)
CC(=O)CS(=O)(=O)c1ccccc1 | > 4 mM (inactive)
CC(C)=CCC1=C(O)c2ccccc2C(=O)C1=O | > 4 mM (inactive)
Nc1ccccc1C(=O)N1CCOCC1 | > 4 mM (inactive)
COCCn1c(C)cc(O)cc1=O | > 4 mM (inactive)
Cn1cnnc1SCC(=O)Nc1ccccc1 | > 4 mM (inactive)
NC(=O)Cn1nc(-c2ccc(F)cc2)ccc1=O | > 4 mM (inactive)
Cc1nnc(SCc2ccc(F)cc2)s1 | > 4 mM (inactive)
CC[C@H]1CN2CCc3cc(OC)c(OC)cc3C2C[C@@H]1CC1NCCc2cc(OC)c(OC)cc21 (some centres undefined) | > 4 mM (inactive)
COc1ccc(S(=O)(=O)Nc2ccccn2)c(C)c1C | > 4 mM (inactive)
O=C1CCCc2c1nc(-c1ccccc1)n2O | > 4 mM (inactive)
CC(C)(O)P(C)(=O)c1ccccc1 (centres undefined) | > 4 mM (inactive)
COc1ccc(/C=C2/NC(=S)NC2=O)cc1 | > 4 mM (inactive)
COc1cc2c(cc1OC)[C@@H]1C(=O)c3ccc(OC)c(CC=C(C)C)c3O[C@@H]1CO2 | > 4 mM (inactive)
CS(=O)(=O)N1CCN(c2ncccn2)CC1 | > 4 mM (inactive)
CC(=O)Nc1ccc(C(=O)NC2CCSC2=O)cc1 (centres undefined) | > 4 mM (inactive)
Cc1ccc(/C=N/n2c(C)nnc2C)cc1 | > 4 mM (inactive)
CC(=O)O[C@H]1C[C@@H](OC(C)=O)C(C)(C)C2C[C@@H](OC(C)=O)[C@@]3(C)C4=CC(=O)O[C@@H](c5ccoc5)[C@]4(C)CCC3[C@]21C (some centres undefined) | > 4 mM (inactive)
NS(=O)(=O)c1ccc(NC(=O)C(F)(F)F)cc1 | > 4 mM (inactive)
CC(=O)c1ccc(NS(=O)(=O)c2cccc(C)c2)cc1 | > 4 mM (inactive)
Cc1ccc(C2NS(=O)(=O)N=C2N)cc1 (centres undefined) | > 4 mM (inactive)
CCSc1nc(=S)n(CC)c(C)c1C(C)=O | > 4 mM (inactive)

Structure (SMILES) | Kd
O=C(c1ncc[nH]1)c1ccccc1C(=O)N1CCOCC1 | > 4 mM (inactive)
CC1(C)Cn2c(nnc2-c2ccccc2)S1 | > 4 mM (inactive)
Cc1nnc(NCCN2CCOCC2)[nH]c1=O | > 4 mM (inactive)
COc1c2c(cc3c1OCO3)C13C=C[C@H](OC)CC1N(C2)CC3O (some centres undefined) | > 4 mM (inactive)
NC(=O)CSCc1c(Cl)cccc1Cl | > 4 mM (inactive)
CN(C)C(=O)CSc1nc2ccccc2c(=O)[nH]1 | > 4 mM (inactive)
O=C(Oc1ccc2c(c1)OCC2=O)c1ccccc1 | > 4 mM (inactive)
O=C(c1ccc(N2CCNCC2)cc1)c1cccnc1 | > 4 mM (inactive)
O=C(/C=C(\O)c1ccccc1)c1ccccc1O | > 4 mM (inactive)
Oc1cc2c(cc1O)C1c3ccc(O)c(O)c3OCC1(O)C2 (centres undefined) | > 4 mM (inactive)
Cc1cccc(C)c1NC(=O)CN1CCOCC1 | > 4 mM (inactive)
CN1CCC(N2CCOCC2)CC1 | > 4 mM (inactive)
COC1=CC23CCCN2CCc2cc4c(cc2C3C1O)OCO4 (centres undefined) | > 4 mM (inactive)
Cc1ccccc1NS(=O)(=O)c1ccc(F)cc1 | > 4 mM (inactive)
O=C1CC(c2c[nH]c3ccccc23)C(=O)N1 (centres undefined) | > 4 mM (inactive)
Cc1cc(C(=O)N2CCN(c3ncccn3)CC2)cs1 | > 4 mM (inactive)
O=C(O)C1CCN(c2ccc(C(F)(F)F)cn2)CC1 | > 4 mM (inactive)
Cn1nnc2cc(C(=O)NC3=NCCS3)ccc21 | > 4 mM (inactive)
Cc1nc2nc(Cc3ccccc3)[nH]n2c(=O)c1Cl | > 4 mM (inactive)
O=C(Nc1cccc(O)c1)c1ccccc1 | > 4 mM (inactive)
O=C(O)Cn1c(=O)sc2ccccc21 | > 4 mM (inactive)
CN(C)c1ccc(CNn2cnnc2)cc1 | > 4 mM (inactive)
